# Results published in ChEMBL document CHEMBL5338791, “Discovery of Novel 1,3-Diphenylpyrazine Derivatives as Potent S-Phase Kinase-Associated Protein 2 (Skp2) Inhibitors for the Treatment of Cancer” (J Med Chem, 2023).
# Calls of active or inactive are those of the source. The calls are words filed in the database; no cut-off is given here.
# What was measured:
# [1] = tested on: MGC-803; assay: Induction of cell cycle arrest in human MGC-803 cells assessed as accumulation of cells at G1 phase at 10 uM incubated for 6 hrs by flow cytometry (reference value: 57.09 %); type: functional
# [2] = tested on: PC-9; assay: Antitumor activity against human PC-9 cells overexpressing Skp2 assessed as cell growth inhibition incubated for 72 hrs by MTT assay; type: functional, cell-based; conditions: PC-9, 72 h
# [3] = tested on: PC-3; assay: Antitumor activity against human PC-3 cells xenografted in NOD-SCID mouse model assessed as tumor growth inhibition at 25 mg/kg, IG administered once every 2 days for 21 days relative to control; type: functional; conditions: PC-3, po, 504 h, time 21 day, read-out: TGI
# [4] = tested on: MGC-803; assay: Upregulation of p21 level in human MGC-803 cells upto 10 uM by Western blot analysis; type: functional, cell-based; conditions: time 48.0 hrs, TDE = time-dependent effect
# [5] = tested on: MGC-803; assay: Antitumor activity against human MGC-803 cells xenografted in NOD-SCID mouse model assessed as downregulation of ki67 level at 10 to 50 mg/kg, IG administered once every 2 days for 21 days by Western blot analysis; type: functional, organism-based; conditions: dose 10-50 mg/kg, time 21.0 day
# [6] = Toxicity in NOD-SCID mouse model xenografted with human MGC-803 cells assessed as change in kidney histology at 10 to 50 mg/kg, IG administered once every 2 days for 21 days by H and E staining based analysis; type: organism-based; conditions: in vivo, po, 504 h, dose 10-50 mg/kg, time 21 day
# [7] = tested on: PC-3; assay: Induction of apoptosis in human PC-3 cells assessed as viable cells at 2.5 uM incubated for 48 hrs by annexin V-FITC/PI staining based flow cytometry (reference value: 98.6 %); type: functional; conditions: read-out: Activity
# [8] = tested on: MGC-803; assay: Induction of cell cycle arrest in human MGC-803 cells assessed as accumulation of cells at G2 phase at 2.5 uM incubated for 48 hrs by flow cytometry (reference value: 21.35 %); type: functional
# [9] = tested on: ES-2; assay: Antitumor activity against human ES2 cells overexpressing Skp2 assessed as cell growth inhibition incubated for 72 hrs by MTT assay; type: functional, cell-based; conditions: ES-2, 72 h
# [10] = Clearance in plasma of NOD-SCID mouse model xenografted with human PC-3 cells at 25 mg/kg, IG measured upto 48 hrs by LC-MS/MS analysis; type: ADME, organism-based; conditions: po
# [11] = tested on: PC-3; assay: Induction of cell cycle arrest in human PC-3 cells assessed as accumulation of cells at G1 phase at 10 uM incubated for 36 hrs by flow cytometry (reference value: 56.81 %); type: functional
# [12] = tested on: MGC-803; assay: Induction of cell cycle arrest in human MGC-803 cells assessed as accumulation of cells at G2 phase at 10 uM incubated for 12 hrs by flow cytometry (reference value: 20.64 %); type: functional
# [13] = Metabolic stability in rat liver microsome assessed as half life at 20 umol/L preincubated for 5 mins followed by NADPH addition measured upto 60 mins by LC-MS/MS analysis; type: ADME; conditions: liver microsomes, dose 20 µmol/L, time < 65 min
# [14] = Toxicity in NOD-SCID mouse model xenografted with human MGC-803 cells assessed as change in heart histology at 10 to 50 mg/kg, IG administered once every 2 days for 21 days by H and E staining based analysis; type: organism-based; conditions: in vivo, po, 504 h, dose 10-50 mg/kg, time 21 day
# [15] = tested on: PC-3; assay: Inhibition of colony formation in human PC-3 cells at 0.5 to 2 uM incubated for 10 days by crystal violet staining based microscopy; type: functional, cell-based; conditions: dose 0.5-2 µM, time 10.0 day
# [16] = tested on: PC-3; assay: Upregulation of p21 level in human PC-3 cells upto 10 uM by Western blot analysis; type: functional, cell-based; conditions: time 48.0 hrs, TDE = time-dependent effect
# [17] = tested on: MGC-803; assay: Antitumor activity against human MGC-803 cells overexpressing Skp2 assessed as cell growth inhibition incubated for 72 hrs by MTT assay; type: functional, cell-based; conditions: MGC-803, 72 h
# [18] = tested on: PC-3; assay: Induction of cell cycle arrest in human PC-3 cells assessed as accumulation of cells at G2 phase at 2.5 uM incubated for 48 hrs by flow cytometry (reference value: 22.59 %); type: functional
# [19] = tested on: NCI-H1299; assay: Antitumor activity against human NCI-H1299 cells overexpressing Skp2 assessed as cell growth inhibition incubated for 72 hrs by MTT assay; type: functional, cell-based; conditions: NCI-H1299, 72 h
# [20] = Half life in tumor of NOD-SCID mouse model xenografted with human PC-3 cells at 25 mg/kg, IG measured upto 48 hrs by LC-MS/MS analysis; type: ADME, organism-based, Neoplasm; conditions: po
# [21] = tested on: PC-3; assay: Induction of apoptosis in human PC-3 cells assessed as viable cells at 10 uM incubated for 48 hrs by annexin V-FITC/PI staining based flow cytometry (reference value: 98.6 %); type: functional; conditions: read-out: Activity
# [22] = Apparent volume of distribution in plasma of NOD-SCID mouse model xenografted with human PC-3 cells at 25 mg/kg, IG measured upto 48 hrs by LC-MS/MS analysis; type: ADME, organism-based; conditions: in vivo, po
# [23] = tested on: PC-3; assay: Antitumor activity against human PC-3 cells xenografted in NOD-SCID mouse model assessed as downregulation of ki67 level at 10 to 50 mg/kg, IG administered once every 2 days for 21 days by Western blot analysis; type: functional, organism-based; conditions: dose 10-50 mg/kg, time 21.0 day
# [24] = target: S-phase kinase-associated protein 2 (Homo sapiens, UniProt Q13309); assay: Inhibition of Skp2 in human MGC-803 cells treated with shRNA 5'-GGACCTATCGAACTCAGTTAT-3' incubated upto 48 hrs by Western blot analysis (reference value: 7 +/- 1.1 microM); type: cell-based
# [25] = tested on: MGC-803; assay: Induction of apoptosis in human MGC-803 cells assessed as viable cells at 10 uM incubated for 48 hrs by annexin V-FITC/PI staining based flow cytometry (reference value: 98 %); type: functional; conditions: read-out: Activity
# [26] = tested on: MGC-803; assay: Induction of cell cycle arrest in human MGC-803 cells assessed as accumulation of cells at G1 phase at 5 uM incubated for 48 hrs by flow cytometry (reference value: 54.46 %); type: functional
# [27] = tested on: MGC-803; assay: Induction of cell cycle arrest in human MGC-803 cells assessed as accumulation of cells at S phase at 10 uM incubated for 12 hrs by flow cytometry (reference value: 20.41 %); type: functional
# [28] = tested on: PC-3; assay: Induction of apoptosis in human PC-3 cells assessed as nuclear fragmentation incubated for 48 hrs; type: functional, cell-based; conditions: dose <= 10.0 µM
# [29] = tested on: MGC-803; assay: Induction of cell cycle arrest in human MGC-803 cells assessed as accumulation of cells at G1 phase at 10 uM incubated for 36 hrs by flow cytometry (reference value: 57.09 %); type: functional
# [30] = tested on: MGC-803; assay: Induction of cell cycle arrest in human MGC-803 cells assessed as accumulation of cells at G2 phase at 10 uM incubated for 48 hrs by flow cytometry (reference value: 21.35 %); type: functional
# [31] = tested on: PC-3; assay: Antitumor activity against human PC-3 cells xenografted in NOD-SCID mouse model assessed as downregulation of Skp2 expression at 10 to 50 mg/kg, IG administered once every 2 days for 21 days by Western blot analysis; type: functional, organism-based; conditions: dose 10-50 mg/kg, time 21.0 day
# [32] = tested on: PC-3; assay: Induction of apoptosis in human PC-3 cells assessed as necrotic cells at 10 uM incubated for 48 hrs by annexin V-FITC/PI staining based flow cytometry (reference value: 0.14 %); type: functional
# [33] = tested on: PC-3; assay: Induction of cell cycle arrest in human PC-3 cells assessed as accumulation of cells at S phase at 10 uM incubated for 48 hrs by flow cytometry (reference value: 22.44 %); type: functional
# Chain of S-phase kinase-associated protein 2 (Q13309 whole entry): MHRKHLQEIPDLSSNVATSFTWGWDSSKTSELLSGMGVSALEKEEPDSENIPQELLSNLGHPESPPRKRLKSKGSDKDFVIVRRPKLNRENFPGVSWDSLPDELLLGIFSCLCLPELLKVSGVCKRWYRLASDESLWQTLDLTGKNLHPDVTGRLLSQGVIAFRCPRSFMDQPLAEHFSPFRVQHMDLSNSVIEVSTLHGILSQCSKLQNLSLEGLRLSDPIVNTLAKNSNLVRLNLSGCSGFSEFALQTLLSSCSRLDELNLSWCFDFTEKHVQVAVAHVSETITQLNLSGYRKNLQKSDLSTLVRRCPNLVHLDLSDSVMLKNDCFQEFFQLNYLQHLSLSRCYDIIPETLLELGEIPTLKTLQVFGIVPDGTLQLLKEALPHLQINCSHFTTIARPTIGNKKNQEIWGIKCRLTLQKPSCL
smiles,measurement,setting,value
O=C(CCl)NC1CCN(c2cnc(-c3ccccc3)c(-c3ccccc3)n2)CC1,Activity,[1],47.84%
same,IC50,[2],8.1 µM
same,inhibition in vivo at 25 mg/kg,[3],71.9%
same,Activity,[4],Tde
same,Activity,[5],Active
same,Activity,[6],Non-Toxic
same,viability at 2.5 µM,[7],92.2%
same,Activity,[8],23.15%
same,IC50,[9],3.6 µM
same,CL/F,[10],118 mL/min/kg
same,Activity,[11],33.46%
same,Activity,[12],18.63%
same,half-life at 20 µM,[13],16.3 min
same,Activity,[14],Non-Toxic
same,inhibition,[15],Active
same,Activity,[16],Tde
same,IC50,[17],7 µM
same,Activity,[18],18.47%
same,IC50,[19],3.6 µM
same,half-life,[20],756 min
same,viability at 10 µM,[21],58.6%
same,Vz,[22],143.3 L/kg
same,Activity,[23],Active
same,IC50,[24],39.2 µM
same,viability at 10 µM,[25],66.9%
same,Activity,[26],45.12%
same,Activity,[27],31.88%
same,Activity,[28],Dose-Dependent Effect
same,Activity,[29],35.48%
same,Activity,[30],14.35%
same,Activity,[31],Active
same,Activity,[32],13.2%
same,Activity,[33],43.58%
